Measurements: patent US20260345596A1, “TREATMENT OF LOCALLY ADVANCED OR METASTATIC UROTHELIAL CARCINOMA WITH ERDAFINITIB” (priority 2023, published 2026)

How the values were obtained:
[1] = in vivo; cited from earlier work
[2] = test system: locally advanced or metastatic urothelial carcinoma with selected FGFR3 alterations; test: Study BLC3001 Cohort 2: efficacy of BALVERSA versus pembrolizumab; type: in vivo, human; conditions: (95% CI)
Procedure: Subjects are assigned to Cohort 1 or Cohort 2 based upon prior treatment with an anti-PD-(L)1 agent. […] Cohort 1 and Cohort 2 are assessed independently.

Question: Which Cystoid macular edema [1] does the source give for `CC(=O)O[C@@]12CO[C@@H]1C[C@H](O)[C@@]1(C)C(=O)[C@H](O)C3=C(C)[C@@H](OC(=O)[C@H](O)[C@@H](NC(=O)OC(C)(C)C)c4ccccc4)C[C@@](O)([C@@H](OC(=O)c4ccccc4)[C@H]21)C3(C)C` [Docetaxel] here?
Answer: Cystoid macular edema has been reported

Question: And the Severe fluid retention [1]?
Answer: Severe fluid retention has been reported

Question: For `CC[C@]12C=CCN3CC[C@@]4(c5cc([C@@]6(C(=O)OC)C[C@@H]7C[C@@H](C(C)(F)F)CN(Cc8c6[nH]c6ccccc86)C7)c(OC)cc5N(C)[C@H]4[C@@](O)(C(=O)OC)[C@@H]1OC(C)=O)[C@@H]32` [Vinflunine], which “Posterior reversible encephalopathy syndrome (PRES)” value [1] is on record?
Answer: Cases of posterior reversible encephalopathy syndrome (PRES) have been observed

Question: Which “Median OS” value [2] does the source give for “Pembrolizumab: anti-PD-(L)1 agent pembrolizumab, 200 mg every 3 weeks” here?
Answer: 11.1 (95% CI: 9.7, 13.6) months
